Test results: patent publication US9532997B2, “Compositions and methods for promoting intestinal stem cell function” (Whitehead Institute for Biomedical Research, priority 2012, dated 2017)
Entries after “also recorded” stand apart in the source; their conditions may differ.

Key:
[1] = system: enteroendocrine and goblet cells; assay: Enteroendocrine (chromogranin A) and goblet cell (Alcian blue) differentiation; assay type: in vivo, mice; conditions: FIG. 6a-b
Experimental: (§1) Tissues were fixed in 10% formalin, paraffin embedded, and sectioned. Antigen retrieval was performed with Borg Decloaker RTU solution (Biocare Medical) in a pressurized Decloaking Chamber (Biocare Medical) for 3 minutes. Antibodies: rat anti-BrdU (1:2000; Abeam 6326), rabbit phospho-S6 Ser235/236 (1:500, CST 4858), rabbit cleaved caspase 3 (1:500; CST 9664), rabbit chromogranin A (1:3000, Abeam 15160), rabbit Lysozyme (1:2000; Thermo), rabbit Bst-1 (1:1000, Abeam 74301) and mouse Bst-1 (1:100 to 500, BD Pharmingen). For mouse Bst-1, the M.O.M (mouse on mouse) kit was used according to the manufacturer's instructions (Vector labs PK-2200). Biotin conjugated secondary donkey anti-rabbit or rat antibodies were used from Jackson ImmunoResearch. The Vectastain Elite ABC immunoperoxidase detection kit (Vector Labs PK-6101) followed by Dako Liquid DAB+ Substrate (Dako) was used for visualization. For immunofluorescence Alexa Fluor 568 secondary antibodies (Invitrogen) were used. All antibody incubations were performed with Common Antibody Diluent (Biogenex).

[2] = system: cleaved caspase 3; assay: Enterocyte apoptosis, cleaved caspase 3 immunostain; assay type: in vivo, mice; conditions: n=3 per group, FIG. 7
Experimental: as §1

[3] = molecular target: T1, mTORC1 (Mus musculus, UniProt P26883+Q9JLN9); assay: Phospho-S6 (P-S6) immunostain as mTORC1 reporter in intestine / sorted Paneth cells; assay type: in vivo, mice; conditions: overnight fasted mice treated before refeeding 5 hours, FIG. 2a
T1 construct: from tissue; host or cells: mouse small intestine sections, isolated crypts and sorted Paneth cells
Description: Mice were housed in the Unit for Laboratory Animal Medicine at the Whitehead Institute for Biomedical Research. Lgr5-EGFP-IRES-CreERT2 mice (Strain name: B6.129P2-Lgr5tm1(cre/ERT2)Cle/J, Stock Number: 008875) were purchased from Jackson Laboratories. UbiquitinC-CreERT2 mice were obtained from the Jackson Laboratory (Strain Name: B6; 129S-Tg(UBC-cre/ERT2)1Ejb/J, Stock Number: 007001). Rictor floxed mice were generated as described in^27 and backcrossed to C57BL/6 for at least 6 generations. TSC1^loxp/loxp mice were the generous gift of D. Kwiatkowski (Harvard Medical School) and backcrossed to C57BL/6 for at least 6 generations. Rosa26-CreERT2 mice (Rosa26 or R26) were obtained from the Jackson Laboratory (Strain 15 Name: B6.129-Gt(ROSA)26Sor^iml(cre/ERT2)Tyj/J, Stock Number 008463). CR was achieved by providing individual or paired mice a daily portion of a chow diet fortified with vitamins and minerals amounting to 60% of the daily food intake of their ad libitum counterparts^20. All adult mice used in CR experiments were between the ages of 10 to 24 weeks and were sacrificed prior to their daily feeding. Rictor or TSC1 was excised by treatment with tamoxifen suspended in corn or sunflower seed oil (Spectrum) at a concentration of 10 mg/mL, and 200 μl per 25 g of body weight was injected intraperitoneally into mice once daily for 5-7 days. […] Mice were allowed to recover for at least 7 days after the last tamoxifen injection prior to any experiments. In vivo fate mapping in Lgr5-EGFP-IRES-reERT2; Rosa26loxpstoploxp-LacZ compound mice was done with a single injection of tamoxifen given at 200 μl per 25 g. As described previously^28, Rapamycin (LC Laboratories) was administered by intraperitoneal injection for 7 to 28 consecutive doses at 4 mg/kg. It was reconstituted in absolute ethanol at 10 mg/ml and diluted in 5% Tween-80 (Sigma) and 5% PEG-400 (Hampton Research) before injection. The final volume of all injections was 200 μl. Regular insulin (Lilly) was administered at 0.75 U/kg diluted in PBS 20 minutes prior to sacrificing fasted mice. […]

[4] = system: Lgr5hi ISCs combined with Paneth cells; assay: Organoid formation of Lgr5hi ISCs cocultured with Paneth cells from treated mice; assay type: in vivo; conditions: for organoid formation of ISCs combined with Paneth cells from rapamycin-treated mice vs vehicle/AL Paneth cells: n=3-5, FIG. 3l, FIG. 13c
Description: (§2) Mice were housed in the Unit for Laboratory Animal Medicine at the Whitehead Institute for Biomedical Research. Lgr5-EGFP-IRES-CreERT2 mice (Strain name: B6.129P2-Lgr5tm1(cre/ERT2)Cle/J, Stock Number: 008875) were purchased from Jackson Laboratories. UbiquitinC-CreERT2 mice were obtained from the Jackson Laboratory (Strain Name: B6; 129S-Tg(UBC-cre/ERT2)1Ejb/J, Stock Number: 007001). Rictor floxed mice were generated as described in^27 and backcrossed to C57BL/6 for at least 6 generations. TSC1^loxp/loxp mice were the generous gift of D. Kwiatkowski (Harvard Medical School) and backcrossed to C57BL/6 for at least 6 generations. Rosa26-CreERT2 mice (Rosa26 or R26) were obtained from the Jackson Laboratory (Strain 15 Name: B6.129-Gt(ROSA)26Sor^iml(cre/ERT2)Tyj/J, Stock Number 008463). CR was achieved by providing individual or paired mice a daily portion of a chow diet fortified with vitamins and minerals amounting to 60% of the daily food intake of their ad libitum counterparts^20. All adult mice used in CR experiments were between the ages of 10 to 24 weeks and were sacrificed prior to their daily feeding. Rictor or TSC1 was excised by treatment with tamoxifen suspended in corn or sunflower seed oil (Spectrum) at a concentration of 10 mg/mL, and 200 μl per 25 g of body weight was injected intraperitoneally into mice once daily for 5-7 days. […] Mice were allowed to recover for at least 7 days after the last tamoxifen injection prior to any experiments. In vivo fate mapping in Lgr5-EGFP-IRES-reERT2; Rosa26loxpstoploxp-LacZ compound mice was done with a single injection of tamoxifen given at 200 μl per 25 g. As described previously^28, Rapamycin (LC Laboratories) was administered by intraperitoneal injection for 7 to 28 consecutive doses at 4 mg/kg. It was reconstituted in absolute ethanol at 10 mg/ml and diluted in 5% Tween-80 (Sigma) and 5% PEG-400 (Hampton Research) before injection. The final volume of all injections was 200 μl. Regular insulin (Lilly) was administered at 0.75 U/kg diluted in PBS 20 minutes prior to sacrificing fasted mice.
Small intestines were removed and the fat/mesentery was dissected away. The intestinal lumen was washed with ice cold PBS (Mg—/Ca—) using a 18 G feeding needle (Roboz FN-7905) until the intestines appeared white/pink. They were then opened longitudinally. The mucous was removed by gently rubbing the intestine between fingers in cold PBS. The intestines were cut into 3 to 5 mm fragments and placed into 50 ml conical tubes that were fill with ice cold 30 ml of PBS (Mg—/Ca—)/EDTA (10 mM). The samples were incubated and shook intermittently on ice for 30 minutes continuously discarding and replacing (at least 3 times) the supernatant. The fragments were then continually resuspended with ice cold 30 ml PBS (Mg—/Ca—)/EDTA (10 mM) and intermittently shook on ice for 10 minutes, discarding the supernatant again for 3 times. The fragments were resuspended again with ice cold 30 ml PBS (Mg—/Ca—)/EDTA (10 mM) and incubated and intermittently shook while waiting on ice for 20 to 40 minutes. The samples were then triturated with a 10 ml pipette 1 to 2 times, and the contents were filtered twice through a 70-μm mesh (BD Falcon) into a 50 ml conical tube to remove villous material and tissue fragments. […] Crypts were removed from this step for crypt culture experiments and embedded in matrigel with crypt culture media. For ISC isolation, the crypt suspensions were centrifuged for 5 minutes at 250 g (4 C or room temperature). The pellets were gently resuspended in 1.0 ml of undiluted TrypLE Express (Invitrogen)+120 μl of DNase I (10 U/μl, Roche) and transferred to 15 ml conical tubes. The samples were incubated in a 32° C. water bath for 1.25 to 2 minutes, were not titurated, and were then placed on ice. 12 ml of cold SMEM was added to each sample and were gently triturated twice. The samples were then centrifuged for 5 minutes at 250 g.

[5] = system: intestinal crypts; assay: Organoid formation (clonogenicity) of intestinal crypts isolated from treated mice; assay type: in vivo
Description: as §2
Small intestines were removed and the fat/mesentery was dissected away. The intestinal lumen was washed with ice cold PBS (Mg—/Ca—) using a 18 G feeding needle (Roboz FN-7905) until the intestines appeared white/pink. They were then opened longitudinally. The mucous was removed by gently rubbing the intestine between fingers in cold PBS. The intestines were cut into 3 to 5 mm fragments and placed into 50 ml conical tubes that were fill with ice cold 30 ml of PBS (Mg—/Ca—)/EDTA (10 mM). The samples were incubated and shook intermittently on ice for 30 minutes continuously discarding and replacing (at least 3 times) the supernatant. […]

CO[C@H]1C[C@@H]2CC[C@@H](C)[C@@](O)(O2)C(=O)C(=O)N2CCCC[C@H]2C(=O)O[C@H]([C@H](C)C[C@@H]2CC[C@@H](O)[C@H](OC)C2)CC(=O)[C@H](C)/C=C(\C)[C@@H](O)[C@@H](OC)C(=O)[C@H](C)C[C@H](C)/C=C/C=C/C=C/1C [Rapamycin, sirolimus]
effects on enteroendocrine and goblet cell differentiation [1]: minimal effects | cleaved caspase 3 (enterocyte apoptosis) vs AL controls [2]: no increase | mTORC1 activation (P-S6) in Paneth cells by feeding [3]: blocked this activation | organoids per AL Lgr5hi ISC mixed with Paneth cells from treated mice, increase vs vehicle ([4]; 4 mg/kg): ~2 fold | effect of combination of CR and rapamycin in ISC-Paneth cell coculture ([4]; CR+R treated mice, FIG. 3j): non-additive | direct effect on ISC function (clonogenicity of ISCs from treated vs vehicle mice) ([4]; FIG. 3l): no direct effect on ISC function | secondary organoid bodies derived from rapamycin-treated Paneth cells vs vehicle ([4]; FIG. 3m): larger and more complex | stability of augmented capacity of Paneth cells to promote ISC self-renewal ([4]; Paneth cells placed in nutrient rich media that activates mTORC1): maintain their augmented capacity to promote ISC self-renewal | organoid formation of ISCs combined with Paneth cells from rapamycin-treated mice vs vehicle/AL Paneth cells [4]: significantly increased | organoid formation of ISCs combined with Paneth cells from rapamycin-treated mice vs vehicle/AL Paneth cells ([4]; listed as rapamycin): prominent increase; also recorded: significantly increased | effect of combination of CR and rapamycin on crypt organoid formation ([5]; CR+R treated mice, FIG. 3i): non-additive | organoids per intestinal crypt, increase vs vehicle-treated mice ([5]; crypts isolated from mice given 4 mg/kg daily, n=3-5, FIG. 3i): ~2 fold | organoid body formation of crypts compared with CR ([5]; mice treated for 1 week, FIG. 3i): as capable of forming organoid bodies as those from mice on CR | crypt clonogenicity after Rictor deletion (mTORC2 independence) ([5]; rapamycin 1 to 3 weeks after Rictor-deletion in Rictorfl/fl UBC-CreERT2 mice vs WT, FIG. 3k): increased the clonogenicity of crypts irrespective of whether they were isolated from adult intestines expressing or lacking Rictor; also recorded: increased crypt clonogenicity to a similar extent as those isolated from rapamycin treated wild-type (WT) mice
